What was measured:
KB = assay: Antiproliferative activity against human KB cells assessed as reduction in cell viability measured after 72 hrs by SRB assay; format: functional, cell-based
MCF7 = assay: Antiproliferative activity against human MCF7 cells assessed as reduction in cell viability measured after 72 hrs by SRB assay; format: functional, cell-based; details: MCF7, 72 h
[1] = Selectivity index, ratio of CC75 for cytotoxicity against human MT4 cells to IC50 for antiviral activity against HIV-1 NL4-3 infected in human MT4 cells; format: toxicity, cell-based; details: read-out: Selectivity Index
[2] = system: Human immunodeficiency virus 1; assay: Antiviral activity against HIV-1 NL4-3 infected in human MT4 cells assessed as reduction in p24 production treated at 48 hrs post-infection and measured on day 4 post-viral infection by ELISA; format: functional, organism-based; details: Human immunodeficiency virus 1, NL4-3, MT4
[3] = Antiproliferative activity against human KB-VIN cells assessed as reduction in cell viability after 72 hrs by SRB assay; format: functional, cell-based; details: KBVIN
MT4 = assay: Cytotoxicity against human MT4 cells assessed as reduction in cell viability by CellTiter-Glo luminescence assay; format: cell-based
MRC5 = assay: Cytotoxicity against human MRC5 cells assessed as inhibition of cell viability; format: cell-based
MDA-MB-231 = assay: Antiproliferative activity against human MDA-MB-231 cells assessed as reduction in cell viability measured after 72 hrs by SRB assay; format: functional, cell-based; details: MDA-MB-231, 72 h
A549 = assay: Antiproliferative activity against human A549 cells assessed as reduction in cell viability measured after 72 hrs by SRB assay; details: A549, 72 h

SMILES	IC50 (KB) [µM]	IC50 (MCF7) [µM]	selectivity ratio [1]	IC50 [2] [µM]	IC50 [3] [µM]	CC75 (MT4) [µM]	IC50 (MRC5) [µM]	IC50 (MDA-MB-231) [µM]	IC50 (A549) [µM]
CC1=C[C@H]2[C@@]3(O)[C@H](C)[C@@H](OC(=O)CCc4ccccc4)[C@]4(OC(=O)CCc5ccccc5)[C@H]([C@@H]3C=C(CO)C[C@]2(O)C1=O)C4(C)C	8.31	10.5	> 10000	0.00049	> 10	> 5	11.4	> 10	> 10
CC1=C[C@H]2[C@@]3(O)[C@H](C)[C@@H](OC(=O)/C=C/c4ccccc4)[C@]4(OC(=O)/C=C/c5ccccc5)[C@H]([C@@H]3C=C(CO)C[C@]2(O)C1=O)C4(C)C	6.45	6.85	> 500	0.00921	6.82	> 5	36.2	8.29	4.7
CC(=O)O[C@@]12[C@H](OC(=O)/C=C/c3ccc(Cl)cc3)[C@@H](C)[C@@]3(O)[C@@H](C=C(CO)C[C@]4(O)C(=O)C(C)=C[C@@H]34)[C@@H]1C2(C)C	> 10	> 10	> 5000	0.00075	> 10	> 5	7.13	> 10	> 10
CCCCCCCCCCCCCCCCCCCC(=O)O[C@]12C([C@@H]3C=C(CO)C[C@]4(O)C(=O)C(C)=C[C@H]4[C@@]3(O)[C@H](C)[C@H]1O)C2(C)C (single isomer, unassigned)	> 40	> 10	> 350	0.0135	> 40	> 5		0.21	0.08
CCCC(=O)O[C@]12C([C@@H]3C=C(CO)C[C@]4(O)C(=O)C(C)=C[C@H]4[C@@]3(O)[C@H](C)[C@H]1OC(=O)/C=C/c1ccc(O)c(OC)c1)C2(C)C (single isomer, unassigned)	> 10	> 10	> 50	0.0872	> 10	> 5		> 10	> 10
CCCC(=O)O[C@]12C([C@@H]3C=C(CO)C[C@]4(O)C(=O)C(C)=C[C@H]4[C@@]3(O)[C@H](C)[C@H]1OC(=O)/C=C/c1ccccc1)C2(C)C (single isomer, unassigned)	> 10	> 10	> 5000	0.0009	> 10	> 5	8.71	> 10	> 10
